Experimental data as given in the supplement of paper PMC10307832.

Key:
Test in all cases: relative viability (nuclei count vs DMSO), 5 days (fraction); higher = more cells survive
[1] = compound: COc1cc2nccc(Oc3ccc(NC(=O)C4(C(=O)Nc5ccc(F)cc5)CC4)cc3)c2cc1OC [Cabozantinib] + Cc1cc(Nc2cc(N3CCN(C)CC3)nc(Sc3ccc(NC(=O)C4CC4)cc3)n2)n[nH]1 [Tozasertib] (partner 0.1 µM)
How it was run: (§1)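 Lung cancer cell lines, seeded in 1536-well plates, were treated the following day by pin tool with a single drug or with five library-drug doses (not always all listed) in √10 steps on top of a fixed anchor-drug dose. Cells were fixed and nuclei stained in one step after 5 days, and nuclei were counted. Relative viability is the nuclei count for treated wells divided by that for vehicle wells, reported as medians of duplicate plates.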

[2] = compound: COc1cc2nccc(Oc3ccc(NC(=O)C4(C(=O)Nc5ccc(F)cc5)CC4)cc3)c2cc1OC [Cabozantinib] + Cc1nc(Nc2ncc(C(=O)Nc3c(C)cccc3Cl)s2)cc(N2CCN(CCO)CC2)n1 [Dasatinib] (partner 0.075 µM)
How it was run: as §1

[3] = compound: O[C@@H](COc1cccc2ncccc12)CN1CCN([C@@H]2c3ccccc3[C@@H]3[C@H](c4ccccc42)C3(F)F)CC1 [Zosuquidar] + CC(C)C[C@H](NC(=O)[C@H](Cc1ccccc1)NC(=O)c1cnccn1)B(O)O [Bortezomib] (partner 0.002 µM)
How it was run: as §1

[4] = compound: O[C@@H](COc1cccc2ncccc12)CN1CCN([C@@H]2c3ccccc3[C@@H]3[C@H](c4ccccc42)C3(F)F)CC1 [Zosuquidar] + Nc1ncn([C@H]2C[C@H](O)[C@@H](CO)O2)c(=O)n1 [Decitabine] (partner 2 µM)
How it was run: as §1

With UMC-11 the relative viability ([1]; first compound 0.02 µM) was 0.192, the relative viability ([1]; first compound 0.06325 µM) was 0.2 and the relative viability ([1]; first compound 0.2 µM) was 0.203. The relative viability ([1]; first compound 0.6325 µM) was 0.204, the relative viability ([1]; first compound 2 µM) was 0.202 and the relative viability ([2]; first compound 0.02 µM) was 0.494. The relative viability ([2]; first compound 0.06325 µM) was 0.492, the relative viability ([2]; first compound 0.2 µM) was 0.453 and the relative viability ([2]; first compound 0.6325 µM) was 0.493. The relative viability ([2]; first compound 2 µM) was 0.452, the relative viability ([3]; first compound 0.01 µM) was 0.654 and the relative viability ([3]; first compound 0.03162 µM) was 0.715. The relative viability ([3]; first compound 0.1 µM) was 0.676, the relative viability ([3]; first compound 0.3162 µM) was 1.06 and the relative viability ([3]; first compound 1 µM) was 0.625. The relative viability ([4]; first compound 0.01 µM) was 0.567, the relative viability ([4]; first compound 0.03162 µM) was 0.575 and the relative viability ([4]; first compound 0.1 µM) was 0.538. The relative viability ([4]; first compound 0.3162 µM) was 0.666 and the relative viability ([4]; first compound 1 µM) was 0.59.
